Data on two compounds can be found in US10640507B2, “PBD antibacterial agents” (KING'S COLLEGE LONDON, priority 2015, dated 2020).

In assay [1] the test system is NCTC 13438. The assay is described as follows: Effect of efflux pump inhibitors (EPIs) on MIC. The assay is classed as cell-based, K. pneumoniae. The settings on record: for MIC: Klebsiella pneumoniae. On the procedure: (§1) 1. Grow up cultures of bacterial strains to be tested overnight.
(§2) 2. Dilute down overnight cultures to concentration of 1×10^6 bacteria/ml (OD0.01) in Tryptic soy broth (TSB).
(§3) 3. Add 100 μl of TSB media to column 2-column 12 in 96 well plate (keeping column 1 clear).
(§4) 4. Make up compound to a concentration of 64 μg/ml in water.
(§5) 5. Add 100 μl of antibiotic solution to the 1st and 2nd columns.
(§6) 6. Using a multichannel pipette take 100 μl from the 2nd column wells and pipette into 3rd column wells and repeat down the 96 well plate (remember to include controls i.e. uninfected media and media with no antibiotic).
(§7) 7. To each well (except uninfected control row H) add 50 μl/well of EPI at 4× final concentration in TSB.
(§8) 9. In wells used to test the effect of the EPI carbonyl cyanide 3-chlorophenylhydrazone (CCCP) the CCCP is added at 10 μg/ml final concentration.
(§9) 10. In wells used to test the effect of the EPI phenylalanine-arginine β-naphthylamide (PABN) the PABN is added at 25 μg/ml final concentration.
(§10) 11. In wells used to test the effect of the PABN+Mg, the PABN is added at 25 μg/ml final concentration, with 1 mM MgSO4 in TSB.
(§11) 12. Wrap plate with parafilm to prevent evaporation.
(§12) 13. Leave at desired temperature (37° C. unless specified elsewhere) for 20 hours.
(§13) 14. Next day check plates for growth and measure optical density (i.e. absorbance) at a wavelength of 600 nm (OD600).
(§14) Compound KMR-14-33 was tested against a range of bacterial species using the above protocol. Compound PP-A148 was also tested against a more limited range of bacterial species using the above protocol. For KMR-14-33 measurements were carried out for the compound alone, for the compound plus CCCP, for the compound plus PABN and for the compound plus PABN and plus Mg. For PP-A148 measurements were carried out for the compound alone and for the compound plus PABN.

In assay [2] the test system is B. cepacia ATCC 17765. The assay can be described thus: General MIC protocol, Gram negative. The assay is classed as cell-based. The following applies: Burkholderia cepacia, ATCC17765. An outline of the steps: (§15)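 Compound was prepared at 64 μg/ml in water, serially halved across the plate and diluted twofold again by added inoculum. Final bacterial density was 5×10^5/ml in TSB. After 20 hours at 37° C, wells were scored for growth by OD600.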

The subject of assay [3] is B. multivorans C1962 (LMG 16665). The assay is described as follows: General MIC protocol, Gram negative. The assay is classed as cell-based. The settings on record: Burkholderia multivorans, LMG16665. An outline of the steps: as §15
The test system of assay [4] is B. cepacia LMG 17997. The assay can be described thus: General MIC protocol, Gram negative. It is filed as cell-based. The settings on record: Burkholderia cepacia, LMG17997. Put shortly:
as §15

In assay [5] the test system is B. multivorans C1576 (LMG 16660). The assay is described as follows: General MIC protocol, Gram negative. The settings on record: Burkholderia multivorans, LMG16660. The assay is classed as cell-based. Put shortly: as §15
The subject of assay [6] is A. baumannii UKA2. The assay can be described thus: General MIC protocol, Gram negative. The assay is classed as cell-based. The following applies: Acinetobacter baumannii. Put shortly: as §15
Assay [7] has as its system A. baumannii NCTC 13302. The assay is described as follows: General MIC protocol, Gram negative. It is filed as cell-based. The following applies: Acinetobacter baumannii, NCTC13302. Put shortly:
as §15

Assay [8] concerns K. pneumonia - M6. The assay can be described thus: Time kill kinetics. It is filed as cell-based. The settings on record: drug at 4×MIC. On the procedure:
1. Grow bacteria overnight.
2. Subculture into an autoclaved conical flask containing 10 ml of TSB to an OD of 0.01 (˜1×10^7 Cfu/ml for KP-M6).
4. Take aliquots (100 μl) at timepoints (0, 1, 2, 4, 6, 24 hours) and carry out a serial dilution in PBS (to remove drug and to dilute bacteria to countable numbers).
5. Use the serial dilution to perform a Miles Misra—i.e. Add 3×10 μl spots of each dilution onto an agar plate. Incubate overnight and count colonies on spots in the morning.
6. Control: Subculture bacteria alongside samples but with no antibiotic added. Take aliquots from this at every time point (0, 1, 2, 4, 6, 24 hours) and perform Miles Misra on these too (as detailed in points 4 and 5 above).
7. After the first experiment, if the counts seen on Miles-Misra were zero, total viable counts were determined by spreading 200 μl in a streak down the centre of a TSB agar plate, waiting for the liquid to be absorbed and then spreading over the plate and checking for growth inhibition at the sight of the original streak.
8. The compound is considered bactericidal if the inoculum was reduced >3 log10 CFU/ml and bacteriostatic if inoculum was reduced by 0-3 log10 CFU/ml.
Three measurements were taken for each compound at each time point. These measurements were averaged and the standard deviation was also calculated.

Assay [9] deals with NCTC 13424. The assay is described as follows: Effect of efflux pump inhibitors (EPIs) on MIC. It is filed as cell-based, A. bauamnnii. On the procedure: as §1, §2, §3, §4, §5, §6, §7, §8, §9, §10, §11, §12, §13, §14
In assay [10] the test system is Klebsiella KP 342. The assay is described as follows: General MIC protocol, Gram negative. The assay is classed as cell-based. The settings on record: Klebsiella, KP342. On the procedure: General Minimum Inhibitory Concentration (MIC) Protocol
as §1, §2, §3
4. Make up compound to a concentration of 64 μg/ml in water (or alternatively to twice the chosen maximum concentration to be tested).
as §5
6. Using a multichannel pipette take 100 μl from the 2nd column wells and pipette into 3rd column wells and repeat down the 96 well plate (remembering to include controls i.e. uninfected media and media with no antibiotic).
7. To each well (except uninfected control row H) add 100 μl of bacterially infected media at a concentration of 1×10^6/ml.
8. This dilutes down the concentration of the antibiotic by half (top dose is therefore 32 μg/ml in column 1) and also gives you a starting bacterial concentration of 5×10^5/ml.
9. Wrap plate with parafilm to prevent evaporation.
10. Leave at desired temperature (37° C. unless specified elsewhere) for 20 hours.
11. Next day check plates for growth and measure optical density (i.e. absorbance) at a wavelength of 600 nm (OD600).
An example of such a plate is shown in FIG. 1 where column A represents wells that receive the top dose 100 μl; column B represents wells that receive the top dose 100 μl+100 μl TSB; and column C represents wells that receive 100 μl TSB. Row H which is marked by a box labelled D represents a blank where the cells receive no bacteria.
The minimum inhibitory concentration (MIC) was measured using the general MIC protocol given above.

Values after ≈ are worked out from the molar mass of the structure shown. Like-named read-outs stand apart in the source and are kept apart here.

With `COc1cc2c(cc1OCCCC(=O)Nc1cc(C(=O)Nc3ccc4sc(C(=O)N(C)C)cc4c3)n(C)c1)N=C[C@@H]1CCCN1C2=O` [KMR-14-33, (S)—N-(2-(dimethylcarbamoyl)benzo[b]thiophen-5-yl)-4-(4-((7-methoxy-5-oxo-2,3,5,11a-tetrahydro-1H-benzo[e]pyrrolo[1,2-a][1,4]-diazepin-8-yl)oxy)butanamido)-1-methyl-1H-pyrrole-2-carboxamide], the MIC was 0.5 µg/mL (≈ 0.761 µM) in assay [1] (NCTC13438, read-out: +CCCP MIC); 0.5 µg/mL (≈ 0.761 µM) in assay [1] (NCTC13438, read-out: Control with no EPI MIC); 0.125 µg/mL (≈ 0.19 µM) in [2]; 2 µg/mL (≈ 3.05 µM) in assay [3]; 0.125 µg/mL (≈ 0.19 µM) in [4]; 1 µg/mL (≈ 1.52 µM) in assay [5]. For the same compound, the MIC in assay [6] was 0.5 µg/mL (≈ 0.761 µM); in [7] it was 0.25 µg/mL (≈ 0.381 µM); in assay [9] (read-out: +CCCP MIC), 0.25 µg/mL (≈ 0.381 µM); in assay [9] (read-out: Control with no EPI MIC), 0.5 µg/mL (≈ 0.761 µM). Also, the “+PABN MIC” value in assay [1] (NCTC 13438, PABN at 25 μg/ml) was determined as 0.125 µg/mL; in assay [9] (NCTC 13424, PABN at 25 μg/ml), 0.125 µg/mL. Moreover, the “+PABN + Mg MIC” value came to 0.25 µg/mL in [1] (NCTC 13438, PABN at 25 μg/ml with 1 mM MgSO4) and 0.25 µg/mL in assay [9] (NCTC 13424, PABN at 25 μg/ml with 1 mM MgSO4). The “Average (Log CFU/ml)” value in assay [8] (time-point 1 hours) worked out at 2667 CFU/ml; in assay [8] (time-point 2 hours), 0 CFU/ml; in assay [8] (time-point 4 hours), 0 CFU/ml; in assay [8] (time-point 6 hours), 0 CFU/ml; in [8] (time-point 24 hours), 0 CFU/ml. In addition, the “n = 1 (Log CFU/ml)” value in [8] (time-point 1 hours) stood at 3000 CFU/ml. Also, the “n = 2 (Log CFU/ml)” value in [8] (time-point 1 hours) turned out to be 3000 CFU/ml; in assay [8] (time-point 2 hours), 0 CFU/ml; in assay [8] (time-point 4 hours), 0 CFU/ml; in [8] (time-point 6 hours), 0 CFU/ml; in [8] (time-point 24 hours) it was 0 CFU/ml. For the same compound, the “n = 3 (Log CFU/ml)” value in assay [8] (time-point 1 hours) came out at 2000 CFU/ml; in assay [8] (time-point 2 hours), 0 CFU/ml; in [8] (time-point 4 hours), 0 CFU/ml; in [8] (time-point 6 hours) it was 0 CFU/ml; in assay [8] (time-point 24 hours) it was 0 CFU/ml. Moreover, the viable count in [8] (time-point 2 hours), in assay [8] (time-point 4 hours), in assay [8] (time-point 6 hours) and in assay [8] (time-point 24 hours) was 0 CFU/mL each time.

`COc1cc2c(cc1OCCCC(=O)Nc1cc(C(=O)Nc3ccc4oc(C(=O)N5CCSCC5)cc4c3)n(C)c1)N=C[C@@H]1CCCN1C2=O` [PP-A148, (S)-4-(4-((7-methoxy-5-oxo-2,3,5,11a-tetrahydro-1H-benzo-[e]pyrrolo[1,2-a][1,4]diazepin-8-yl)oxy)butanamido)-1-methyl-N-(2-(thiomorpholine-4-carbonyl)benzofuran-5-yl)-1H-pyrrole-2-carboxamide] gave an MIC in assay [10] of 4 to 8 µg/mL (≈ 5.72 to 11.4 µM).
